From PubChem BioAssay (NCI) come the findings set out here.

What all share (test): inhibition of tumour cell growth, NCI panel, 48 h
In assay [1] the test system is BT-549 breast.
For assay [2], the system named is CAKI-1 renal.
Assay [3] deals with CCRF-CEM leukemia.
The subject of assay [4] is COLO 205 colon.
Assay [5] concerns HOP-62 NSCLC.
The subject of assay [6] is HOP-92 NSCLC.
Assay [7] relates to IGROV1 ovarian.
Assay [8] concerns M14 melanoma.
Assay [9] concerns MDA-MB-435.
In assay [10] the test system is MDA-N.
The test system of assay [11] is MOLT-4 leukemia.
Assay [12] concerns NCI-H522 lung.
Assay [13] concerns OVCAR-4 ovarian.
Assay [14] has as its system OVCAR-5 ovarian.
In assay [15] the test system is RPMI-8226 leukemia.
Assay [16] concerns T-47D breast.
For assay [17], the system named is TK-10 renal.
For assay [18], the system named is U251 CNS.
The test system of assay [19] is UACC-257 melanoma.

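Method: 48-hour compound exposure of cells in 96-well plates, five concentrations, linear interpolation of endpoints. The concentration for full growth arrest is given as TGI.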

In the case of `COC(=O)c1cc(=O)n(-c2ccc3nn(C)nc3c2)cc1C(=O)OC`, the TGI in [1], in [2], in [3], in assay [4], in assay [5] and in assay [6] was greater than 100 µM in each case. The TGI in assay [7], in assay [8], in assay [9], in assay [10], in assay [11] and in [12] was greater than 100 µM each time. Further, the TGI in [13], in assay [14], in assay [15], in assay [16], in assay [17] and in assay [18] was greater than 100 µM each time. For the same compound, the TGI in assay [19] is greater than 100 µM.
As for `CC(=O)NC(Cc1ccccc1)NC(=O)O` (stereo unspecified), the TGI in assay [1], in assay [2], in [3], in [4], in [5] and in assay [6] was greater than 100 µM in each case. Also, the TGI in assay [7], in assay [8], in [9], in [10], in assay [11] and in assay [12] was greater than 100 µM in each case. Moreover, the TGI in assay [13], in assay [14], in assay [15], in assay [16], in assay [17] and in assay [18] was greater than 100 µM in each case. For the same compound, the TGI in assay [19] was greater than 100 µM.
Consider `O=C(Oc1c(Cl)cc(C2(c3cc(Cl)c(OC(=O)c4ccccc4)c(Cl)c3)CCCCC2)cc1Cl)c1ccccc1`, for which the TGI in assay [1] worked out at 27.9 µM; in assay [2], 18.5 µM; in assay [3], 30.1 µM; in assay [4] it was 19.6 µM; in [5] it was 33.9 µM; in assay [6], 21.8 µM. Further, the TGI was found to be 23.4 µM in assay [7]; 30.3 µM in assay [8]; 24.7 µM in assay [9]; 25.6 µM in [10]; 20.7 µM in assay [11]; 29.3 µM in assay [12]. The TGI in assay [13] stood at 32.3 µM; in [14], 27.4 µM; in assay [15], 33.3 µM; in assay [16], 37.2 µM; in assay [17], 30.4 µM; in assay [18], 26.8 µM. The TGI in [19] stood at 26.1 µM.
In the case of `CCOC(=O)CC1(Cc2ccc(OCc3ccccc3)cc2)C(=O)OC(c2ccccc2)N1C(=O)c1ccccc1` (stereo unspecified), the TGI in assay [1], in assay [2], in assay [3], in assay [4], in assay [5] and in [6] was greater than 100 µM in each case. Moreover, the TGI in [7], in assay [8], in assay [9], in [10], in assay [11] and in assay [12] was greater than 100 µM in each case. Further, the TGI in [13], in assay [14], in assay [15], in assay [16], in assay [17] and in assay [18] was greater than 100 µM in each case. This compound showed a TGI in assay [19] greater than 100 µM.
